Experimental data: PMC12024814, “Ruthenium(II)–Arene Complexes with a 2,2′-Bipyridine Ligand as Anti-Aβ Agents” (Biomolecules, 2025)

Key:
[1] = target: T1, human serum albumin (HSA) (Homo sapiens, UniProt P02768); assay: Protein binding assay, warfarin (WF) displacement, Sudlow site I; conditions: warfarin probe, Stern–Volmer slope, HSA and WF 2.5 μM, PBS
T1 construct: purchased Sigma Aldrich
Experimental: A stock of human serum albumin (HSA, 100 μM) was prepared using PBS, while the probes dansyl glycine (DG) and warfarin (WF) were prepared by initially dissolving them in DMSO and diluting them with PBS until the concentration of DMSO was less than 5%. Solutions of each Ru complex were prepared by initial dissolution in DMSO and subsequent dilution using PBS until the concentration of DMSO was less than 5%. The total volume of each sample was 3.5 mL, where the concentration of HSA and DG/WF was 2.5 μM throughout the experiment. The Ru concentration ranged from 0 μM to 62.5 μM, with an increase of 12.5 μM for each sample. In total, six samples were prepared for each protein binding assay. After preparation, the samples were placed on an IKA Trayster inversion mixer (60 rpm) for 30 s and incubated at approximately 28 °C in a Neslab gp-200 for 15 min, before being placed back on the inversion mixer (60 rpm) for 30 s. All fluorescence measurements for the protein binding assay were made using a PTI QuantiMaster 50, and the samples were measured at room temperature with conditions respective to the probe.
One important consideration for a potential AD therapeutic is its interaction with serum proteins, specifically albumin (HSA). […] To determine the potential association of the prepared Ru complexes with HSA, a protein binding assay was performed. For these studies, the displacement of two fluorometric probes was used to determine the relative affinity of the Ru complexes for two of the established binding sites on HSA. The first probe, warfarin (WF), an anticoagulant, binds selectively to Sudlow site I on HSA [55], while the second probe used was dansyl glycine (DG), which selectively binds to Sudlow site II on HSA [56]. As these are the two major binding sites on the protein, the probes allow for observations of binding events that occur within these hydrophobic pockets. Individually, the probes were initially mixed with HSA, followed by increasing amounts of the respective Ru complexes, whereby the decrease in fluorescence signals from the respective probes (Figures S22–S30) was used to construct a Stern–Volmer plot, where the slope of the line represents the conditional binding constant (K’) for the respective Ru complexes to each site (Figure 8).

Aβ40 [2] = target: T2, Aβ40 (Homo sapiens, UniProt P05067); assay: Dynamic light scattering (DLS) of ThT assay samples; assay type: biochemical; conditions: for DLS prominent peak particle size / DLS minor feature share of the total spectrum / DLS minor feature particle size: Aβ40 co-incubated with complex 6 h; for DLS prominent peak particle size: PBS pH 7.4, 37 °C, Aβ40 alone around 340 nm; for DLS minor feature share of the total spectrum: Aβ40 alone 13 percent; for DLS minor feature particle size: Aβ40 alone 78 nm; for Ranking DLS: scale 1 to 5 (1 = best, 5 = worst)
T2 construct: Lyophilized Aβ40 was monomerized following previous procedures; purchased GenScript
Experimental: Samples were extracted from the ThT assay plate for DLS analysis. A 125 μL sample was placed into a 1 mL syringe and injected through a syringe filter (pore size: 0.2 μm), into a 0.5 mL microcentrifuge tube. The filtrate was added to a microvolume polystyrene cuvette and placed into a Malvern Zetasizer Nano ZSP to measure the DLS spectra. Measurements are represented as an average of percent intensity through several runs determined by Zetasizer software Version 7.13.1.
Samples for DLS analysis were taken directly from the ThT assay following its completion. This allowed for a comparison between both data sets, to determine if a correlation for activity between the complexes could be established. For the Aβ40 peptide alone, a prominent peak around 340 nm was observed, while following treatment with the respective Ru complexes, a discernable shift to smaller particle sizes was unanimously observed (Figure 6).

Aβ40 [3] = target: T2, Aβ40; assay: Thioflavin T (ThT) fluorescence assay of Aβ40 aggregation; assay type: biochemical; conditions: for Ranking ThT: scale 1 to 5 (1 = best, 5 = worst); for relative aggregation of Aβ40 (ThT fluorescence normalized to Aβ40 alone): equimolar 10 µM complex and Aβ40, 10 µM ThT, final 6 h time point, 37 °C
Experimental: All PBS used in the assay was filtered through a 0.20 μm Titan 3 syringe filter prior to use. The Ru stock solutions initially dissolved about 1.5 mg of each Ru complex in 100 µL DMSO and diluted it to 10 mL with PBS. Thioflavin T (ThT) was prepared in the same manner as the Ru complexes but was filtered prior to use in the assay. Lyophilized Aβ40 was monomerized following previous procedures and stored at −20 °C until use. When removed from the freezer, peptide samples were held on ice for 20 min prior to preparation for the assay. The Aβ40 was mixed with a 15 μL aliquot of DMSO and gently flicked to initiate dissolution. Next, 135 μL PBS was added, and the sample was sonicated until the solution was clear. The concentration of the Aβ40 stock solution was determined using an Implen NanoPhotometer N50 at λ = 280 nm with an extinction coefficient of 1490 M^−1 cm^−1 [27]. Samples were prepared in a 96-well plate by the sequential addition of PBS, Ru, ThT, and Aβ, where the final volume was 150 μL, and the analyte concentrations were 10 μM each. Thioflavin T (ThT) fluorescence was measured using the SpectraMax M3 plate reader with λex = 440 nm and λem = 480 nm. Measurements were taken every 30 min for a total of 6 h, with shaking occurring between each reading.
Each of the prepared Ru complexes was mixed with an equimolar amount of Aβ40 (10 µM), along with ThT (10 µM). Each sample was prepared in triplicate, loaded onto a microwell plate, and incubated at 37 °C with constant agitation to promote aggregation, with fluorescence measurements taken every 30 min for up to 6 h. The resultant fluorescence signals were normalized to the last time point for the samples of Aβ40 alone. After 4 h of incubation, a sharp increase in fluorescence for the peptide alone was observed, signifying that aggregation was occurring (Figure 5). […] Remarkably, the activity shown by RuBA is among the greatest we have measured thus far across a variety of Ru complexes. To confirm this activity, the samples from the ThT assay were subjected to additional analysis, as described below.
Figure 5 ThT fluorescence results following the incubation of equimolar solutions (10 μM) of Aβ40 with the Ru complexes for up to 6 h at 37 °C. The signals were normalized to the positive control of the free peptide in solution at the 6 h time point. The error bars represent the standard deviation observed for each data point for the respective samples.

[4] = Aqueous stability by 1H NMR (DMSO-D6/D2O, 37 °C); assay type: physicochemical; conditions: for ligand exchange in aqueous media (1H NMR): DMSO-D6/D2O, up to 24 h (RuBtB in 75% DMSO); for incubation time at which new 1H NMR signals (ligand exchange) reached maximum intensity: 25% DMSO-D6 in D2O
Experimental: A common step in the mechanism of action for most metal-based drugs is ligand exchange around the metal center. This promotes the coordination of the complex to the penultimate biological target, eliciting the desired response. […] Therefore, to evaluate the relative stability of the prepared complexes, ^1H NMR studies were performed. Following complete dissolution of the complexes in deuterated DMSO, dilution using D2O to a final DMSO concentration of 25% provided aqueous samples that were measured following prolonged incubation at 37 °C.
For the majority of the complexes, new signals emerged in close proximity to those of the parent complex, even without any incubation. […] A previously study monitoring ligand exchange for RuB in the presence of several proteins saw that neither the arene ring nor the 2,2-bipyridine ligands were lost, but rather the labile monodentate chloride ligand was replaced.

T2 sequence (P05067 672-711 limits assumed): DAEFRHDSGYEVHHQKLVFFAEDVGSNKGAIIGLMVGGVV
T1 sequence (P02768 25-609): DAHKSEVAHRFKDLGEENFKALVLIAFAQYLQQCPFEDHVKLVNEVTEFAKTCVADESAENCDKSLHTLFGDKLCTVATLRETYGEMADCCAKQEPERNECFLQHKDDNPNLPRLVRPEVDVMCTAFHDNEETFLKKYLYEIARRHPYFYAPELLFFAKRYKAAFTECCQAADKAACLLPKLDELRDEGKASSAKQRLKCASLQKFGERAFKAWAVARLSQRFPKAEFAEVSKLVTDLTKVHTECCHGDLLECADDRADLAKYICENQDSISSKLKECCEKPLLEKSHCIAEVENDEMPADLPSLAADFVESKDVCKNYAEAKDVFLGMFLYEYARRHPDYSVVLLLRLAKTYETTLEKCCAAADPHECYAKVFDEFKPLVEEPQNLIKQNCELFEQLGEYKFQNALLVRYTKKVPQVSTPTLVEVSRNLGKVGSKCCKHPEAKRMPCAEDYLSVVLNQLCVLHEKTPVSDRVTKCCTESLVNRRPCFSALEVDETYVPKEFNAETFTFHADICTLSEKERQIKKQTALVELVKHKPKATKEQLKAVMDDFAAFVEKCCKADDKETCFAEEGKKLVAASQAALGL

Row | Compound | Log K (WF), conditional binding constant to serum albumin [1] | DLS prominent peak particle size (Aβ40 [2]) [nm] | DLS minor feature share of the total spectrum (Aβ40 [2]) [%] | DLS minor feature particle size (Aβ40 [2]) [nm] | Ranking DLS (Aβ40 [2]) | Ranking ThT (Aβ40 [3]) | ligand exchange in aqueous media (1H NMR) [4] | relative aggregation of Aβ40 (ThT fluorescence normalized to Aβ40 alone) (Aβ40 [3]) | incubation time at which new 1H NMR signals (ligand exchange) reached maximum intensity [4] [h]
1 | [Ru(η^6-p-cymene)(4,4′-diamino-2,2′-bipyridine)Cl]PF6 [RuBA] | 4.38 | 231 | 3 | 42 | 4 | 1 | particularly rapid | – | –
2 | [Ru(η^6-p-cymene)(4,4′-dimethoxy-2,2′-bipyridine)Cl]PF6 [RuBMeO] | 4.00 | 239 | 11 | 32 | 2 | 4 | – | 16.1% ± 6.9% | 1
3 | Cc1ccc(C(C)C)cc1.Cc1ccnc(-c2cc(C)ccn2)c1.F[P-](F)(F)(F)(F)F.[Cl-].[Ru+2] [RuBMe, [Ru(η^6-p-cymene)(4,4′-dimethyl-2,2′-bipyridine)Cl]PF6] | 4.56 | 214 | 2 | 24 | 1 | 5 | – | – | 1
4 | Cc1ccc(C(C)C)cc1.F[P-](F)(F)(F)(F)F.[Cl-].[Ru+2].c1ccc(-c2ccccn2)nc1 [RuB, [Ru(η^6-p-cymene)(2,2′-bipyridine)Cl]PF6] | 4.24 | 227 | 4 | 21 | 3 | 2 | – | 9.0% ± 2.3% | 1
5 | [Ru(η^6-p-cymene)(4,4′-di-tert-butyl-2,2′-bipyridine)Cl]PF6 [RuBtB] | – | 264 | 4 | 53 | 5 | 3 | no new signals emerged even after 24 h of incubation | 14.3% ± 0.6% | –
